Our source for the PKN1 ubiquitination values is PMC12584752, “Covalent fragment screening to inhibit the E3 ligase activity of bacterial NEL enzymes SspH1 and SspH2” (RSC Chemical Biology, 2025).

The target in the assay is SspH1 (161–700) (Salmonella typhimurium, UniProt D0ZVG2). Description: Substrate (PKN1) ubiquitination assay. Format: biochemical. Conditions: SspH1 pre-labelled with compound overnight at RT; 0–30 minutes. Further details: SspH1 (5 μM, 161–700) was prelabelled at 350 rpm, RT for 18 hours; His-tag (N, cleaved yes); made in house; host or cells: E. coli BL21. As for the experimental part: Fig. 4 SspH1 in vitro inhibition with compounds 6 and 7. (A) Discharge assay schematic; (B) E2–Ub discharge time course assay with SspH1 pre-treated with either DMSO or compounds 6 or 7. UbcH5A–Ub-cy3 (1 μM) was incubated at RT for 0–30 minutes with SspH1 (residues 161–700, 50 nM) which had been pre-labelled with 6 or 7 at RT overnight. (C) Substrate ubiquitination assay schematic; (D) PKN1 ubiquitination time course assay with SspH1 pre-treated with either DMSO or compounds 6 or 7. A reaction of UBA1 (0.1 μM), UbcH5A (2 μM), ubiquitin (20 μM), PKN1 HR1b (2 μM, residues 122–199) and 10 mM ATP was incubated at RT for 0–30 minutes with SspH1 (residues 161–700, 0.5 μM) which had been pre-labelled with 6 or 7 at RT overnight.
SspH1 (161–700), sequence (D0ZVG2 161-700): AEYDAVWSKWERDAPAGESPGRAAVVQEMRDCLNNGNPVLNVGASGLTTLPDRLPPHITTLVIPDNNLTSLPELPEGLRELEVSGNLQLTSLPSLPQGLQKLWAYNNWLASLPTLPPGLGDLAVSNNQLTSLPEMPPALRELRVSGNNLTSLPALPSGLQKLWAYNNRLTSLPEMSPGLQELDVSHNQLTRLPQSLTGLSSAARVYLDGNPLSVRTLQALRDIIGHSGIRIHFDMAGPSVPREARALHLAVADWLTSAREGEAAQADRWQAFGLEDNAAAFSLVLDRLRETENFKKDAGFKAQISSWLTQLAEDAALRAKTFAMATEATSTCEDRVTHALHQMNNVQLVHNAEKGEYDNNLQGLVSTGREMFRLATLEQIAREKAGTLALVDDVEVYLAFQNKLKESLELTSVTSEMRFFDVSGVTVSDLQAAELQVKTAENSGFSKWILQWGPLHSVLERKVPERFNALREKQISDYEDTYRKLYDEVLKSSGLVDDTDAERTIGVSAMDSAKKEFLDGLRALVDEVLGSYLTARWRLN
Alternatively, substrate ubiquitination can be followed in vitro using a reconstituted ubiquitin enzymatic cascade, where recombinant ubiquitin, E1, E2, E3 and substrate are incubated with ATP (Fig. 4C). With SspH1, E3 ligase activity can then be observed by ubiquitination of its substrate PKN1.[25] This assay represents a higher order of complexity and involves three enzymes with catalytic cysteines (E1, E2 and E3) and is closer to in situ E3 activity. We compared SspH1 ubiquitination activity when SspH1 was pre-treated with DMSO or compound 6 or 7 (Fig. 4D), again overnight at room temperature to ensure complete labelling. […]

Consider `Cc1cc(-c2nc3ccccc3n2C2CCN(C(=O)CCl)CC2)cc(C)c1O.Cl` [compound 6], for which the PKN1 ubiquitination entry was “completely abrogated”.
The result for `Cl.O=C(CCl)N1CCC(n2c(-c3ccc(C(F)(F)F)cc3)nc3ccccc32)CC1` [compound 7] reads “completely abrogated”.
